Read-outs that look alike come from different tables or passages of the source.
Assays:
C2C12 myoblasts [1] = test: Myogenesis, myotube formation and morphology without dexamethasone; format: cell-based, mouse; conditions: for myotube formation and overall myotube diameters: 10 μM ebselen, 5 mM LiCl or 1.25 μM BIO, 24 hours
Procedure: (§1) Then, the myoblasts were treated with a differentiation medium (DMEM supplemented with 2% horse serum and PenStrep) for 72 hours so that the myoblasts were induced to differentiate into myotubes.
In differentiation cultures, myotubes were visualized by treatment with 50 nM MitoTracker Red CMX-Ros and […] DAPI in a differentiation medium at 37° C. for 30 minutes and imaged using a fluorescence microscope (Leica DMI3000B, Germany) as described above.
(§2) To evaluate myotube formation and atrophy, five microscopic fields of H&E-stained or MitoTracker Red CMX-Ros-stained cultures were randomly captured, and multinuclear myotube formation and diameters were calculated. Myotubes were designated as multinucleated cells containing three or more nuclei, and the diameters of myotubes were calculated using ImageJ 1.48 software (National Institutes of Health, Bethesda, MD, USA).

[2] = tested on: Atrogin-1, MuRF-1, FoxO3a expression; test: qPCR of atrophy genes in dexamethasone-treated myotubes; format: cell-based, mouse; conditions: for Atrogin-1 and FoxO3a expression: 10 μM dexamethasone 24 hours
Procedure: (§3) C2C12 myoblasts were seeded onto 6-well plates in a growth medium (GM). After reaching confluence, the cultures were treated with DM for 72 hours, and myotube atrophy was induced with DM containing 10 μM dexamethasone for 24 hours in the presence or absence of the drug of interest. Myotubes were visualized using hematoxylin and eosin staining according to a previously published protocol, and imaged with an optical microscope (Olympus CKX41, Japan). A myotube distribution was calculated by dividing the number of myotubes in each group by the total number of myotubes per image.
(§4) The transcription level of the gene was measured using a StepOnePlus Real Time PCR System (manufactured by Applied Biosystems, UK). cDNA was reverse transcribed from total RNA using an AccuPower RT PreMix (manufactured by Bioneer, USA). Real-time PCR was performed by modifying the manufacturer's instructions as follows.
(§5) PCR was performed three times using a total of 20 μL of 2×Power SYBR Green PCR Master Mix containing 200 nM of specific primers and 1 μL of cDNA. 10 minutes of incubation was performed at 95° C. prior to PCR amplification. The amplification consisted of 40 cycles of denaturation (for 15 seconds at 95° C.), annealing (for 1 minute at 60° C.), and extension (for 20 seconds at 72° C.). Extension and fluorescence detection were performed at 72° C. after each cycle. After the final cycle, melting point analysis was performed using continuous fluorescence detection on samples at a temperature in a range of 60° C. to 95° C. Specific cDNA samples were included in each run and used as a reference for comparison between runs. Expression levels of GAPDH were used for normalization and expression levels of all other genes were calculated.

C2C12 myoblasts [3] = test: MTT assay, myoblast viability; format: cell-based, mouse; conditions: for concentration at which cytotoxicity was not observed: MTT; for IC50: read-out: IC50, MTT assessment
Procedure: C2C12 mouse skeletal muscle progenitor cells (myoblasts) were grown in a growth medium including Dulbecco's Modified Eagle's Medium (DMEM) supplemented with 10% fetal bovine serum (FBS), 50 units/mL if penicillin, and […] of streptomycin (PenStrep).
(§6) Cell proliferation was evaluated through MTT (3-(4,5-dimethylthiazol-2-yl)-2,5-diphenyltetrazolium bromide) assay as described above. Myoblasts were seeded 3 times into 96-well plates at a density of 2×10^3 cells per well. A compound to be tested was added, followed by 48 hours of incubation, the medium was changed to an MTT solution (0.5 mg/mL, final concentration), and the plate was incubated in an incubator at 37° C., 5%, CO2 conditions. After 60 minutes of incubation, 50 μL of DMSO was added. Optical density in each well was measured at 570 nm using a microplate reader (VersaMax, Molecular Devices, USA). For myotube analysis, myoblasts were differentiated for […], the medium was supplemented with the compound of interest, 48 hours of incubation was additionally performed, and the cultures were assayed.

C2C12 myotubes [4] = test: Dexamethasone-induced myotube atrophy, H&E morphology; format: cell-based, mouse; conditions: co-treatment with 10 μM dexamethasone; for average myotube diameter: 24 hours
Procedure: as §3, §2

C2C12 myotubes [5] = test: MTT assay and microscopy, myotube viability; format: cell-based, mouse
Procedure: as §1, §6

IMPase = IMPase activity assay in myotubes (myo-inositol assay kit); format: cell-based, mouse; conditions: 10 μM dexamethasone
Procedure: IMPase activity in cells and tissues was measured using a myo-inositol assay kit (Megazyme, Ireland) according to the manufacturer's instructions. The cell […] was sonicated in PBS for 90 seconds with a 30-second on and 15-second off cycle (Vibra-Cell, USA) as described above, and then centrifuged at 13,000×g for 15 minutes as described above. Thus, the supernatant was prepared.

C57BL/6J mice [6] = test: Skeletal muscle atrophy dexamethasone model; format: in vivo, mouse
Procedure: 13-week-old male C57BL/6J mice were treated with drugs as follows: • 1) Injection of vehicle (4% hydroxypropyl-β-cyclodextrin) alone; • 2) 15 mg/kg of dexamethasone dissolved in vehicle; • 3) 15 mg/kg of dexamethasone and 1 mg/kg of ebselen; and • 4) Injection of 15 mg/kg dexamethasone and 3 mg/kg ebselen (n=5 per group).
The muscle condition was evaluated after intraperitoneal injection daily for 14 days with the same drug as above.
A grip strength of each mouse was recorded using a BIO-GS3 (Bioseb, USA). To measure the grip strength, mice were placed on a metal grid to grip the metal grid with four paws and were gently pulled back until the mice were unable to continue holding the grid. Muscle strength was expressed using the maximum value obtained from three trials at 1-minute intervals.
Mice were placed in the center of a grid, and it was made sure that the grid was gripped by the limbs of the mice. Next, the grid was turned over and hung at a height of 50 cm above a baseline, and the hanging time was measured up to 10 minutes.
In the case of the dexamethasone-induced atrophy model, the quadriceps, gastrocnemius and splenic muscles were dissected and weighed. The quadriceps were stained with H&E according to the same protocol used for the glycerol test and used for histological analysis.

C2C12 myotubes [7] = test: SUnSET assay of protein synthesis; format: cell-based, mouse
Procedure: Surface sensing translation (SUnSET) assay was performed as described above. Briefly, 1 μg/mL puromycin was added to the culture and the harvest was lysed after 10 minutes. For immunoblotting, the myotube extract was treated with anti-puromycin 12D10 antibody (MABE343; Millipore).

C57BL/6J mice [8] = test: Skeletal muscle degenerative glycerol model; format: in vivo, mouse
Procedure: The glycerol infusion protocol was used to induce muscle degeneration. Male C57BL/6J mice were anesthetized with PBS containing ketamine (22 mg/kg; Yuhan, Republic of Korea) and xylazine (10 mg/kg; Bayer, Republic of Korea), 100 μL glycerol (50% vol/vol) was injected into unilateral gastrocnemius muscle and splenic muscle.
The mice were treated with vehicle (0.5% methyl cellulose) or with vehicle+ebselen (30 mg/kg) via oral gavage every 24 hours (n=6 per group). A muscle fatigue test was performed after 5 days.
Muscle fatigue was measured using a known protocol (Chiu, et al.). In summary, mice were trained prior to initiating the fatigue task using an accelerated Rotarod (Ugo Basile, Italy). Mice were trained with a Rotarod at a constant speed of 13 rpm for 15 minutes. After 15-minute recovery, mice were placed on a Rotarod adapted to accelerate to 13 to 25 rpm within 3 minutes, for 15 minutes. After 24 hours, the muscle fatigue test was performed with a ramping rate of 13 to 25 rpm within 3 minutes and held at 25 rpm for 30 minutes. For each mouse, a delay time falling from the Rotarod was measured. Mice being tiered were classified as falling 4 times within 1 minute and the test was stopped.
Before sacrificing the mice, the mice were anesthetized by intraperitoneal injection of PBS containing ketamine (22 mg/kg; Yuhan Corporation, Korea) and xylazine (10 mg/kg; Bayer, Korea). After sacrificing the mice, the gastrocnemius and splenic muscles of the glycerol injury model were dissected and weighed. For histological analysis, the muscles were incubated overnight with 4% paraformaldehyde at 4° C., fixed, and embedded in paraffin. 5-μm muscle sections were obtained and was stained with H&E using a kit according to the manufacturer's instructions (Merck & Co., USA). Damaged areas and cross-sectional areas were measured using ImageJ 1.48 software (National Institutes of Health).

FoxO3a = test: Immunocytochemistry of FoxO3a in myotubes; format: cell-based, mouse
Procedure: Myoblasts were differentiated into myotubes in 6 well plates. The myotubes were then immunostained for FoxO3a (Cell Signaling Technology, dilution of 1:400). Alexa Fluor 488 goat anti-mouse IgG was used as a secondary antibody (manufactured by Invitrogen). Nuclei were stained using DAPI solution (1 μM dissolved in third distilled water). Staining was visualized by fluorescence microscopy (Leica DMI3000 B).

human skeletal myoblasts = test: Dexamethasone atrophy in human skeletal myotubes; format: cell-based; conditions: 24 hours
Procedure: Human skeletal myoblasts were purchased from Thermo-Fisher Scientific. Myoblasts were thawed in a water bath, washed with […], and centrifuged at 180 g for 5 minutes at room temperature. Next, myoblasts were resuspended in DM and seeded in a 12-well plate at a density of 4.8×10^4 cells/well. After 72 hours, the myoblasts were treated with a compound for 24 hours. The myotube diameter was measured by optical microscopy analysis of DIC captured images (Olympus CKX41).

[9] = tested on: Pax7, Myf5, MyoG, Myh2 expression; test: qPCR of myogenic markers in differentiating myoblasts; format: cell-based, mouse; conditions: differentiation medium, 100 mM myo-inositol
Procedure: as §4, §5

[10] = 100 mM myo-inositol, no dexamethasone

Compound: 6-Bromoindirubin-3-oxime [BIO]
- myotube formation and overall myotube diameters (C2C12 myoblasts [1]): inhibited myotube formation

Compound: CC(Oc1ccc(O)cc1)(P(=O)(O)O)P(=O)(O)O [L-690,330, [1-(4-hydroxyphenoxy)-1-phosphonoethyl]phosphonic acid]
- FoxO3a expression ([2]; 10 μM dexamethasone): inhibited the up-regulation
- concentration at which cytotoxicity was not observed (C2C12 myoblasts [3]): up to 50 μM
- proportion of larger diameter myotubes (C2C12 myotubes [4]): larger diameter myotubes were observed
- average myotube diameter (C2C12 myotubes [4]): increased

Compound: [Cl-].[Li+] [LiCl]
- number of observable myotubes (C2C12 myotubes [5]; microscopic observation, 50 mM LiCl): reduced
- FoxO3a expression ([2]; 10 μM dexamethasone): inhibited the up-regulation
- IC50 (C2C12 myoblasts [3]; 48 hours): 19.9 mM
- concentration at which cytotoxicity was not observed (C2C12 myoblasts [3]): up to 5 mM
- myotube formation and overall myotube diameters (C2C12 myoblasts [1]): enhanced myotube formation and increased overall myotube diameters
- proportion of larger diameter myotubes (C2C12 myotubes [4]): larger diameter myotubes were observed
- average myotube diameter (C2C12 myotubes [4]): increased

Compound: O=C1c2ccccc2[Se](=O)N1c1ccccc1 (centres unmarked) [ebselen oxide]
- Atrogin-1 and FoxO3a expression [2]: inhibited the expression

Compound: O=c1c2ccccc2[se]n1-c1ccccc1 [ebselen]
- IMPase activity (IMPase): effective in inhibiting IMPase activity
- body weight (C57BL/6J mice [6]; 15 mg/kg dexamethasone with ebselen, i.p. daily 14 days, vs untreated mice): significant weight loss
- quadriceps mass (C57BL/6J mice [6]; 15 mg/kg dexamethasone, 1 or 3 mg/kg ebselen, i.p. daily 14 days): recovered
- hanging time (C57BL/6J mice [6]; inverted hanging test, vs dexamethasone-treated mice): significantly enhanced
- IMPase activity (C57BL/6J mice [6]; quadriceps): inhibitory effect of ebselen on IMPase activity was confirmed
- muscle fiber cross-sectional area (C57BL/6J mice [6]; quadriceps, histology): increased
- ratio of larger fibers (C57BL/6J mice [6]; quadriceps, histology): increased
- expression of Atrogin-1 and Murf-1 (C57BL/6J mice [6]; quadriceps, qPCR): effectively reduced
- grip strength (C57BL/6J mice [6]; vs dexamethasone-treated mice): significantly enhanced
- Atrogin-1 and FoxO3a expression [2]: inhibited the up-regulation
- concentration at which cytotoxicity was not observed (C2C12 myoblasts [3]): ≤ 10 µM
- IC50 (C2C12 myoblasts [3]; Mus musculus, C2C12, 48 hours): 0.0224 mM
- protein synthesis (C2C12 myotubes [7]; alone or with dexamethasone): effective in increasing protein synthesis
- protein synthesis (C2C12 myotubes [7]; dexamethasone-treated myotubes): increased
- myotube formation and overall myotube diameters (C2C12 myoblasts [1]): enhanced myotube formation and increased overall myotube diameters
- proportion of larger diameter myotubes (C2C12 myoblasts [1]; no dexamethasone): significantly increased
- average myotube diameter (C2C12 myotubes [4]): did not show a decrease
- body weight (C57BL/6J mice [8]; 30 mg/kg ebselen, oral gavage every 24 hours): no significant difference
- concentration of myo-inositol (C57BL/6J mice [8]; gastrocnemius muscle damaged by glycerol): decreased
- expression of Atrogin-1 and Murf-1 (C57BL/6J mice [8]; gastrocnemius, qPCR): effectively reduced
- gastrocnemius muscle mass (C57BL/6J mice [8]; glycerol-injected muscle): increased
- mass loss of splenic muscle (C57BL/6J mice [8]; glycerol-injected splenic muscle): significantly inhibited
- damaged area (C57BL/6J mice [8]; histology, H&E): reduced
- fiber cross-sectional area (C57BL/6J mice [8]; histology, H&E): larger
- gastrocnemius mass (C57BL/6J mice [8]; non-injected muscles, oral ebselen): did not affect
- FoxO3a up-regulation caused by dexamethasone (FoxO3a): inhibited
- myotube diameter and proportion of large diameter myotubes (human skeletal myoblasts): inhibited the effect of dexamethasone

Compound: O[C@H]1[C@H](O)[C@@H](O)[C@H](O)[C@@H](O)[C@H]1O [myo-inositol]
- expression of MyoG and Myh2 [9]: reduced
- expression of Pax7 and Myf5 [9]: increased
- cytotoxicity (C2C12 myotubes [5]; myotubes, 500 mM, 48 hours): significant cytotoxicity
- concentration without cytotoxicity / effect on cell viability (C2C12 myotubes [5]; myotubes, MTT, 48 hours): below 250 mM
- expression of atrogin-1, MuRF-1 and FoxO3a ([2]; 10 μM dexamethasone, 100 mM myo-inositol): further increased
- protein synthesis (C2C12 myotubes [7]; alone or with dexamethasone): decreased
- average myotube diameter (C2C12 myoblasts [1]; [10]): decreased
- average myotube length (C2C12 myoblasts [1]; [10]): decreased
- myotube morphology (C2C12 myoblasts [1]; 100 mM, 48 hours, H&E): induced shortened and narrower myotubes
- number of immature myotubes (C2C12 myoblasts [1]; DM with 100 mM myo-inositol, 48 hours): reduced
- proportion of larger diameter myotubes (C2C12 myoblasts [1]; no dexamethasone): reduction
- myotube length (C2C12 myotubes [4]): significantly reduced
- average myotube diameter (C2C12 myotubes [4]): significantly reduced
